In US11041000B2, “Peptide inhibitors of interleukin-23 receptor and their use to treat inflammatory diseases” (priority 2019, dated 2021):
Bridge positions count the residues as written; N and C are the ends. Square brackets hold non-standard residues; d marks the D form. Peptide text beside a SMILES is read from it. Trp(7-OMe) = COc1cccc2c(C[C@H](N)C(=O)O)c[nH]c12; His(π-Bom) = N[C@@H](Cc1cncn1COCc1ccccc1)C(=O)O; Trp(7-Me) = Cc1cccc2c(C[C@H](N)C(=O)O)c[nH]c12; 2Nal = N[C@@H](Cc1ccc2ccccc2c1)C(=O)O; AEF = NCCOc1ccc(C[C@H](N)C(=O)O)cc1; Cit = NC(=O)NCCC[C@H](N)C(=O)O; Pen = CC(C)(S)[C@H](N)C(=O)O; αMeK = C[C@](N)(CCCCN)C(=O)O; βAla = NCCC(=O)O

Assays:
Stability in rat plasma = type: in vitro ADME; details: both sexes, SD rat plasma, EDTA, 37° C., read-out: t½: Rat Plasma EDTA (converted)
[1] = Stability in cynomolgus monkey fecal homogenate; type: in vitro ADME; details: 20% fecal homogenate (supernatant), anaerobic, pH 6.8, 20% cynomolgus monkey fecal homogenate, 37° C., read-out: t½: Monkey Feces anaerobic (converted)
Protocol: (§1) Centrifuged the homogenate at 2800×g for 15 min. The supernatant is taken out and used for incubations. […] The final test compound concentration was 20 μM.

[2] = Stability in human fecal homogenate; type: in vitro ADME; details: 20% fecal homogenate (supernatant), pH 6.8, 20% human fecal homogenate, anaerobic, 37° C., read-out: t½: Human Feces anaerobic (converted)
Protocol: as §1

[3] = target: IL-23R-expressing DB cells (Homo sapiens, UniProt Q5VWK5); experiment: DB cells IL23R pSTAT3 cell assay (pStat3HTRF); type: cell-based; details: DB cells stimulated with IL-23 0.5 nM, 30 minutes, phospho-STAT3 in cell lysates; read-out: pStat3 HTRF
Text: Human ELISA indicates the IL23-IL23R competitive binding assay described below, Rat ELISA indicates the rat IL-23R competitive binding ELISA assay described below, and pStat3HTRF indicates the DB cells IL-23R pSTAT3 cell assay described below. The peptides depicted in Table E1 are cyclized via a disulfide bridge formed between two Pen residues in these peptides. The peptides depicted in Table E2 are cyclized via a thioether bond between the indicated amino acid residues. Table E2 provides an illustrative structure depicting thioether cyclization, which is indicated in the table by the term “cyclo,” with the cyclic region bracketed immediately following the term “cyclo.” For certain peptides, the residue Abu is present where indicated, whereas in other embodiments, e.g., those related to the non-cyclized form, the Abu may be referred to as a hSer(Cl) or homoSer residue. The petpides depicted in Table E3 are cyclized via a disulfide bridge formed between two Pen residues or a thioether bond between Abu and Cys.
IL-23 plays a central role in supporting and maintaining Th17 differentiation in vivo. This process is thought to be mediated primarily through the Signal Transducer and Activator of Transcription 3 (STAT3), with phosphorylation of STAT3 (to yield pSTAT3) leading to upregulation of RORC and pro-inflammatory IL-17. This cell assay examines the levels of pSTAT3 in IL-23R-expressing DB cells when stimulated with IL-23 in the presence of test compounds. Serial dilutions of test peptides and IL-23 (Humanzyme #HZ-1261) at a final concentration of 0.5 nM, were added to each well in a 96 well tissue culture plate (Corning #CLS3894). DB cells (ATCC #CRL-2289), cultured in RPMI-1640 medium (Thermo Scientific #11875093) supplemented with 10% FBS, were added at 5×10E5 cells/well and incubated for 30 minutes at 37° C. in a 5% CO2 humidified incubator. Changes in phospho-STAT3 levels in the cell lysates were detected using the Cisbio HTRF pSTAT3 (Tyr705) Cellular Assay Kit (Cisbio #62AT3PEH), according to manufacturer's Two Plate Assay protocol.

[4] = Stability in simulated intestinal fluid (SIF); type: in vitro ADME; details: simulated intestinal fluid with pancreatin, pH 6.8, 37° C., matrix is 100 fold dilution of standard SIF concentration; for SIF t½: 20 μM

Chain of IL-23R-expressing DB cells (Q5VWK5 24-629 limits assumed): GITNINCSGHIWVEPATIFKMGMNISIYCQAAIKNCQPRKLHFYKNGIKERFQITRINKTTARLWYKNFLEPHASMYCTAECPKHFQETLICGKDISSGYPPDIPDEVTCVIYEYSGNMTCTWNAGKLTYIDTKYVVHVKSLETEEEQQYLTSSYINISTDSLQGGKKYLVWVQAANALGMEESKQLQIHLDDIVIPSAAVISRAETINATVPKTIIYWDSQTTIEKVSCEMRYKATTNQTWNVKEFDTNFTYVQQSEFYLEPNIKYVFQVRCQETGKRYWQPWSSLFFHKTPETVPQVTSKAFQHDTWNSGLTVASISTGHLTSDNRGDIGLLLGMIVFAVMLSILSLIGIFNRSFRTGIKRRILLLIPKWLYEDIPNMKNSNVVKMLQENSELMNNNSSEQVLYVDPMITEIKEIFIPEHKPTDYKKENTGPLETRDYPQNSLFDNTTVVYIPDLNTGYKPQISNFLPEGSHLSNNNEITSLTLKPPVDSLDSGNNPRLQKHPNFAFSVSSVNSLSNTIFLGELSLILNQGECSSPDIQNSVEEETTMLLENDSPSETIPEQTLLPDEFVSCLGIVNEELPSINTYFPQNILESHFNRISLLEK

half-life at 20 μM [1] [h]	SIF t½ [4] [h]	Structure (SMILES)	half-life at 20 μM (Stability in rat plasma) [h]	half-life at 20 μM ([1]; cynomolgus monkey) [h]	half-life at 20 μM [2] [h]	IC50 [3] [nM]	half-life at 20 μM ([4]; read-out: SIF t½ (converted)) [h]
–	–	CC(=O)NCCCC[C@H](NC(=O)C1(NC(=O)[C@H](Cc2ccc3ccccc3c2)NC(=O)[C@H](Cc2ccc(OCCN)cc2)NC(=O)[C@H]2NC(=O)[C@H](CCC(N)=O)NC(=O)[C@H](Cc3c[nH]c4c(C)cccc34)NC(=O)[C@H]([C@@H](C)O)NC(=O)[C@H](CC(N)=O)NC(=O)[C@@H](NC(C)=O)C(C)(C)SSC2(C)C)CCNCC1)C(=O)N[C@@H](CC(N)=O)C(=O)NCCC(N)=O [compound 275]	> 24	8	> 24	2.17	–
–	–	CC(=O)N[C@@H]1C(=O)N[C@@H](CC(N)=O)C(=O)N[C@@H]([C@@H](C)O)C(=O)N[C@@H](Cc2c[nH]c3c(C)cccc23)C(=O)N[C@@H](CCCNC(N)=O)C(=O)N[C@H](C(=O)N[C@@H](Cc2ccc(OCCN)cc2)C(=O)N[C@@H](Cc2ccc3ccccc3c2)C(=O)N[C@@](C)(CCCCN)C(=O)N[C@@H](CCCNC(N)=O)C(=O)NCCC(=O)NCCC(N)=O)C(C)(C)SSC1(C)C [compound 281] (Ac-[Pen]NT[Trp(7-Me)][Cit][Pen][AEF][2Nal][αMeK][Cit][βAla][βAla]-NH2; disulfide 1-6)	> 24	> 24	> 24	17.7	14
–	–	CC(=O)NCCCC[C@H](NC(=O)[C@](C)(CC(C)C)NC(=O)[C@H](Cc1ccc2ccccc2c1)NC(=O)[C@H](Cc1ccc(OCCN)cc1)NC(=O)[C@H]1NC(=O)[C@H](CCC(N)=O)NC(=O)[C@H](Cc2c[nH]c3c(C)cccc23)NC(=O)[C@H]([C@@H](C)O)NC(=O)[C@H](CC(N)=O)NC(=O)[C@@H](NC(C)=O)C(C)(C)SSC1(C)C)C(=O)N[C@@H](C(=O)NCCC(N)=O)[C@H](C)O [compound 218]	1	> 24	> 24	11	–
–	–	CC(=O)NCCCC[C@@H]1NC(=O)[C@H](Cc2c[nH]c3c(C)cccc23)NC(=O)[C@H]([C@@H](C)O)NC(=O)[C@H](CC(N)=O)NC(=O)[C@@H](NC(C)=O)C(C)(C)SSC(C)(C)[C@@H](C(=O)N[C@@H](Cc2cncn2COCc2ccccc2)C(=O)N[C@@H](Cc2ccc3ccccc3c2)C(=O)N[C@@](C)(CCCCN)C(=O)N[C@@H](CCCCNC(C)=O)C(=O)N[C@@H](CC(N)=O)C(=O)N[C@H](CC(C)C)C(N)=O)NC1=O [compound 291] (Ac-[Pen]NT[Trp(7-Me)]K(Ac)[Pen][His(π-Bom)][2Nal][αMeK]K(Ac)N[dL]-NH2; disulfide 1-6)	> 24	> 24	> 24	> 1000	–
> 24	24	COc1cccc2c(C[C@@H]3NC(=O)[C@H]([C@@H](C)O)NC(=O)[C@H](CC(N)=O)NC(=O)[C@@H](NC(C)=O)C(C)(C)SSC(C)(C)[C@@H](C(=O)N[C@@H](Cc4ccc(OCCN)cc4)C(=O)N[C@@H](Cc4ccc5ccccc5c4)C(=O)N[C@@](C)(CCCCN)C(=O)N[C@@H](CCCCNC(C)=O)C(=O)N[C@@H](CC(N)=O)C(=O)N[C@H](CCCCN)C(N)=O)NC(=O)[C@H](CCCNC(N)=O)NC3=O)c[nH]c12 [compound 300] (Ac-[Pen]NT[Trp(7-OMe)][Cit][Pen][AEF][2Nal][αMeK]K(Ac)N[dK]-NH2; disulfide 1-6)	> 24	–	> 24	> 1000	–
> 24	24	CCCCCCCC(=O)NCCCC[C@H](NC(=O)[C@](C)(CCCCN)NC(=O)[C@H](Cc1ccc2ccccc2c1)NC(=O)[C@H](Cc1ccc(OCCN)cc1)NC(=O)[C@H]1NC(=O)[C@H](CCCCNC(C)=O)NC(=O)[C@H](Cc2c[nH]c3c(C)cccc23)NC(=O)[C@H]([C@@H](C)O)NC(=O)[C@H](CC(N)=O)NC(=O)[C@@H](NC(C)=O)C(C)(C)SSC1(C)C)C(=O)N[C@@H](CC(N)=O)C(=O)N[C@H](CC(C)C)C(N)=O [compound 358]	> 24	–	> 24	3.03	–
